Reference: US11884750B2, “Cationic cell penetrating peptides and the use thereof” (CELLTROY CO., LTD., priority 2021, dated 2024)

Legend:
HaCAT cells = assay: Cell penetration efficiency in human epidermal (skin) cells, 4 μM, flow cytometry; assay type: cell-based; details: 4 μM FITC-conjugated CPP, one hour
Method: The cell penetration efficiency of the cationic CPPs selected in Example 1 was evaluated using human epidermal cells. In further detail, HaCAT cells, which is a human epidermal cell line, were seeded in 24-well plates to have a cell density of 1×10^7 cells/well, and cultured in 10% FBS-added DMEM under conditions of 37° C. and 5% CO2 for 24 hours. Subsequently, the cells were treated 4 μM each of the FITC-conjugated CPP or FITC-conjugated TAT, and incubated for one hour. After the termination of the incubation, the cells were transferred to a sterile tube using 0.25% trypsin, and the medium was removed through centrifugation. Afterward, the cells were washed with 500 μL of D-PBS twice to completely remove the medium, and finally, resuspended in 400 μL of D-PBS and intracellular fluorescence was measured by flow cytometry (FACSCanto II).
(§1) To evaluate the cell penetration efficiency of the additionally selected cationic CPPs, an experiment was conducted using human epidermal cells or human neuroblastoma cells. In further detail, HaCAT cells, which is a human epidermal cell line, or SH-SYSY cells, which is a human neuroblastoma cell line, were seeded in 24-well plates to have a cell density of 1×10^7 cells/well and cultured in 10% FBS-added DMEM under conditions of 37° C. and 5% CO2 for 24 hours. In addition, the cells were treated with 4 μM each of FITC-conjugated peptides and FITC-conjugated TAT for one hour. After the completion of the culture, the cells were transferred to a sterile tube using 0.25% trypsin and centrifuged to remove the medium. Afterward, the cells were washed with 500 μL of D-PBS twice to completely remove the medium, and finally, resuspended in 400 μL of D-PBS and intracellular fluorescence was measured by flow cytometry (FACSCanto II).
(§2) Subsequently, to confirm whether the CPPs according to the present invention show excellent cell permeability into different types of cells/tissues, various tissue-derived cells were treated with biologically active molecule-conjugated CPPs to compare its delivery capacity with TAT. As in the previous examples, each cell was aliquoted in a plate at an appropriate density, and cultured in a 10% FBS-added medium under a condition of 37° C. and 5% CO2 for 24 hours. Subsequently, the cells were treated with 4 μM each of FITC-conjugated CPP or FITC-conjugated TAT and incubated for one hour. After the completion of the incubation, the cells were transferred to a sterile tube using 0.25% trypsin and centrifuged to remove the medium. Afterward, the cells were washed with 500 μL of D-PBS twice to completely remove the medium, and finally, resuspended in 400 μL of D-PBS and intracellular fluorescence was measured by flow cytometry (FACSCanto II).

SH-SY5Y cells = assay: Cell penetration efficiency in human neuroblastoma cells, 4 μM, flow cytometry; assay type: cell-based; details: one hour; for cell permeability compared with TAT: 4 μM FITC-conjugated CPP, flow cytometry; for Score / Score/TAT: 4 μM FITC-conjugated peptide; for Score: intracellular fluorescence by flow cytometry; for Score/TAT: ratio to FITC-conjugated TAT
Method: The cell penetration efficiency of the cationic CPPs selected in Example 1 was evaluated in neuroblastoma. In further detail, SH-SYSY cells, which is a human neuroblastoma cell line, were seeded in 24-well plates to have a cell density of 1×10^7 cells/well, and cultured in 10% FBS-added DMEM under conditions of 37° C. and 5% CO2 for 24 hours. In addition, the cells were treated with 4 μM each of FITC-conjugated CPPs (C12, C14, C16, C31, C52, and C67), or FITC-conjugated TAT, and incubated for one hour. After the termination of the incubation, the cells were transferred to a sterile tube using 0.25% trypsin and centrifuged to remove the medium. Afterward, the cells were washed with 500 μL of D-PBS twice to completely remove the medium, and finally, resuspended in 400 μL of D-PBS and intracellular fluorescence was measured by flow cytometry (FACSCanto II).
as §1, §2

HGB cell line = assay: Cell penetration efficiency in glioblastoma cells; assay type: cell-based, human; details: 4 μM FITC-conjugated CPP, one hour
Method: as §2

HDF cell line = assay: Cell penetration efficiency in skin cells (HDF); assay type: cell-based; details: 4 μM FITC-conjugated CPP, one hour
Method: as §2

HeLa cell line = assay: Cell penetration efficiency using cervical cancer cells; assay type: cell-based; details: 4 μM FITC-conjugated CPP, one hour
Method: as §2

HT1080 cell line = assay: Cell penetration efficiency using connective tissue (fibrosarcoma) cells; assay type: cell-based; details: 4 μM FITC-conjugated CPP, one hour
Method: as §2

HepG2 cell line = assay: Cell penetration efficiency using liver cells; assay type: cell-based; details: 4 μM FITC-conjugated CPP, one hour
Method: as §2

HEK293T cell line = assay: Cell penetration efficiency using kidney cells; assay type: cell-based; details: 4 μM FITC-conjugated CPP, one hour
Method: as §2

A-427 cell line = assay: Cell penetration efficiency using lung cells; assay type: cell-based; details: A-427 lung cells, 4 μM FITC-conjugated CPP, one hour
Method: as §2

SNU-46 cell line = assay: Cell penetration efficiency using laryngeal cells; assay type: cell-based; details: SNU-46 laryngeal cells, 4 μM FITC-conjugated CPP, one hour
Method: as §2

monocytes = assay: Cell penetration efficiency using monocytes; assay type: cell-based; details: 4 μM FITC-conjugated CPP, one hour
Method: as §2

macrophages = assay: Cell penetration efficiency using macrophages; assay type: cell-based; details: macrophages differentiated from THP1 cells, 4 μM FITC-conjugated CPP, one hour
Method: as §2, with “II). Macrophages were used by inducing differentiation from THP1 cells. Specifically, the THP-1 cells were aliquoted on a cover glass laid on a 24-well plate to have a density of 6×10^4 cells/well, and after the addition of 100 ng/mL of phorbol 12-myristate 13-acetate (PMA), the cells were incubated for 48 hours to induce the differentiation into macrophages. After 48 hours, the cells were washed with Dulbecco's phosphate buffered saline (DPBS) to perform an experiment.” for “II).”

With KKRKKRRKKRKVDP [C67] the “cell permeability compared with TAT” value (HaCAT cells) was “increased cell permeability”, the “cell permeability compared with TAT” value (SH-SY5Y cells) was “higher cell permeability” and the Score (SH-SY5Y cells) was 2328. For the same sequence, the Score/TAT (SH-SY5Y cells) was 4.486, the “cell permeability compared with TAT” value (HGB cell line) was “higher cell permeability” and the “cell permeability compared with TAT” value (HDF cell line) was “higher cell permeability”. For the same sequence, the “cell permeability compared with TAT” value (HeLa cell line) was “higher cell permeability”, the “cell permeability compared with TAT” value (HT1080 cell line) was “higher cell permeability” and the “cell permeability compared with TAT” value (HepG2 cell line) was “higher cell permeability”. The “cell permeability compared with TAT” value (HEK293T cell line) was “higher cell permeability”, the “cell permeability compared with TAT” value (A-427 cell line) was “higher cell permeability” and the “cell permeability compared with TAT” value (SNU-46 cell line) was “higher cell permeability”.
RPALKQRRWRRKKK [C117] was tested, and the “cell permeability compared with TAT” value (HaCAT cells) was “higher cell permeability”, the “cell permeability compared with TAT” value (SH-SY5Y cells) was “higher cell permeability” and the Score (SH-SY5Y cells) was 936. For the same sequence, the Score/TAT (SH-SY5Y cells) was 1.803, the “cell permeability compared with TAT” value (monocytes) was “higher cell permeability” and the “cell permeability compared with TAT” value (HGB cell line) was “higher cell permeability”. For the same sequence, the “cell permeability compared with TAT” value (HDF cell line) was “higher cell permeability”, the “cell permeability compared with TAT” value (HeLa cell line) was “higher cell permeability” and the “cell permeability compared with TAT” value (HT1080 cell line) was “higher cell permeability”. The “cell permeability compared with TAT” value (A-427 cell line) was “higher cell permeability” and the “cell permeability compared with TAT” value (SNU-46 cell line) was “higher cell permeability”.
LMPSKIRRRKKRKK [C85] was tested, and the “cell permeability compared with TAT” value (HaCAT cells) was “higher cell permeability”, the “cell permeability compared with TAT” value (SH-SY5Y cells) was “higher cell permeability” and the Score (SH-SY5Y cells) was 798. The Score/TAT (SH-SY5Y cells) was 1.538, the “cell permeability compared with TAT” value (macrophages) was “higher cell permeability” and the “cell permeability compared with TAT” value (monocytes) was “higher cell permeability”. For the same sequence, the “cell permeability compared with TAT” value (HDF cell line) was “higher cell permeability”, the “cell permeability compared with TAT” value (HT1080 cell line) was “higher cell permeability” and the “cell permeability compared with TAT” value (SNU-46 cell line) was “higher cell permeability”.
KRRKLRIKRRIRVP [C208] was tested, and the “cell permeability compared with TAT” value (HaCAT cells) was “higher cell permeability”, the “cell permeability compared with TAT” value (SH-SY5Y cells) was “higher cell permeability” and the Score (SH-SY5Y cells) was 1326. The Score/TAT (SH-SY5Y cells) was 2.555, the “cell permeability compared with TAT” value (monocytes) was “higher cell permeability” and the “cell permeability compared with TAT” value (HDF cell line) was “higher cell permeability”. The “cell permeability compared with TAT” value (HeLa cell line) was “higher cell permeability”, the “cell permeability compared with TAT” value (HT1080 cell line) was “higher cell permeability” and the “cell permeability compared with TAT” value (SNU-46 cell line) was “higher cell permeability”.
For MKRLLKVVRRRRRP [C201], the “cell permeability compared with TAT” value (SH-SY5Y cells) was “higher cell permeability”, the Score (SH-SY5Y cells) was 802 and the Score/TAT (SH-SY5Y cells) was 1.545. The “cell permeability compared with TAT” value (macrophages) was “higher cell permeability”, the “cell permeability compared with TAT” value (HGB cell line) was “higher cell permeability” and the “cell permeability compared with TAT” value (HeLa cell line) was “higher cell permeability”. For the same sequence, the “cell permeability compared with TAT” value (SNU-46 cell line) was “higher cell permeability”.
In the case of RLRALVRRKQRARP [C82], the “cell permeability compared with TAT” value (HaCAT cells) was “higher cell permeability”, the “cell permeability compared with TAT” value (SH-SY5Y cells) was “higher cell permeability” and the Score (SH-SY5Y cells) was 628. For the same sequence, the Score/TAT (SH-SY5Y cells) was 1.210, the “cell permeability compared with TAT” value (monocytes) was “higher cell permeability” and the “cell permeability compared with TAT” value (HT1080 cell line) was “higher cell permeability”. The “cell permeability compared with TAT” value (A-427 cell line) was “higher cell permeability”.
In the case of YRPRRKKATKKLKR [C284], the “cell permeability compared with TAT” value (SH-SY5Y cells) was “higher cell permeability”, the Score (SH-SY5Y cells) was 532 and the Score/TAT (SH-SY5Y cells) was 1.025. The “cell permeability compared with TAT” value (macrophages) was “higher cell permeability”, the “cell permeability compared with TAT” value (HGB cell line) was “higher cell permeability” and the “cell permeability compared with TAT” value (HeLa cell line) was “higher cell permeability”. The “cell permeability compared with TAT” value (HEK293T cell line) was “higher cell permeability”.
For RPLVRRRLRRAVRR [C226], the “cell permeability compared with TAT” value (HaCAT cells) was “higher cell permeability”, the Score (SH-SY5Y cells) was 474 and the Score/TAT (SH-SY5Y cells) was 0.913. The “cell permeability compared with TAT” value (macrophages) was “higher cell permeability”, the “cell permeability compared with TAT” value (monocytes) was “higher cell permeability” and the “cell permeability compared with TAT” value (HeLa cell line) was “higher cell permeability”. The “cell permeability compared with TAT” value (SNU-46 cell line) was “higher cell permeability”.
In the case of YRPRRKKITKKLKR [C283], the Score (SH-SY5Y cells) was 514, the Score/TAT (SH-SY5Y cells) was 0.990 and the “cell permeability compared with TAT” value (macrophages) was “higher cell permeability”. For the same sequence, the “cell permeability compared with TAT” value (monocytes) was “higher cell permeability”, the “cell permeability compared with TAT” value (HGB cell line) was “higher cell permeability” and the “cell permeability compared with TAT” value (HeLa cell line) was “higher cell permeability”. The “cell permeability compared with TAT” value (HT1080 cell line) was “higher cell permeability”, the “cell permeability compared with TAT” value (HEK293T cell line) was “higher cell permeability” and the “cell permeability compared with TAT” value (SNU-46 cell line) was “higher cell permeability”.
